Measurements published in patent US4153684A, “Immunizing and anti-infectious adjuvant agents constituted by N-acetyl-muramyl-L-alanyl-D-glutamic acid derivatives” (priority 1976, dated 1979).
Where “and” joins values, the source holds several entries; their conditions need not be identical. Equal entries are not always repeated.

Experiments:
[1] = test system: anti-albumin antibodies; test: Adjuvant character in aqueous solution: anti-albumin antibodies by passive hemagglutination (NHCH3 series); type: in vivo, Swiss mice
Protocol: Groups of 8 Swiss mice aged two months receive, by subcutaneous injection, 0.5 mg of antigen constituted by the albumin of bovine serum (BSA) and 0.1 mg of the substance tested in an isotonic saline solution. […] Thirty days later, the mice receive a further dose containing 0.1 mg of the same antigen.
The strength of antibody is determined by passive hemagglutination, by using the red blood corpuscles of sheep treated for formalin and recovered from the antigen studied by the method described by A. A. Hirata and M. W. Brandiss (J. Immunol., 100, 641-648, 1968). The taking of the blood took place 14, 28, 34 and 36 days after the first injection.

[2] = test system: antibody to ovalbumin; test: Adjuvant character in oily phase: proportion of antibody to ovalbumin (NHCH3 series); type: in vivo, Hartley guinea-pigs; conditions: 500 μg ovalbumin, 100 μg in FIA emulsion, 21 days
Protocol: As for the preceding tests, one follows the increase of the proportion of antibody caused by the injection of antigen and of the compound of the invention, but, in the present case, the injection contains an oily phase constituted by Freund's incomplete adjuvant (in water-in-oil emulsion).
For these tests, Hartley guinea-pigs of 350 g were used. The control animals receive, in each of the hind feet 0.1 ml of emulsion, either of FIA, or of FCA (Freund's complete adjuvant) containing 500 μg of ovalbumin (antigen). The test product is administered at the rate of 100 μg, in an emulsion of FIA.
21 days after the injection, the proportion of antibody is determined by passive hemagglutatination (PHA), as previously, and by precipitation by the method of Folin.

[3] = test system: K. pneumoniae; parameters: species or system mice; conditions: mouse, in vivo, iv
[4] = test system: antibody specific to the ovalbumin; test: Adjuvant character in oily phase: serum antibody specific to ovalbumin (esters); type: in vivo, Hartley guinea-pigs; conditions: 100μg in FIA emulsion; for Serum antibody Precipitation: intradermal, 21 days; for Serum antibody Agglutination: passive hemagglutination
[5] = test system: Klebsiella pneumoniae; test: Anti-infectious protection, intramuscular inoculation of 10^4 K.pneumoniae; type: in vivo, hybrid mice (C57B1/6×AKR)Fl; conditions: for Number of animals surviving on day 3 / Number of animals surviving on day 5 / Number of animals surviving on day 8: mouse, in vivo
[6] = test system: anti-albumin antibody; test: Adjuvant character in aqueous phase: anti-albumin antibody by passive hemagglutination (esters); type: in vivo, Swiss mice
Protocol: In the series of tests of which the results are indicated hereafter, the influence of the active principle according to the invention on the proportion of the anti-albumin antibody has been studied under the following conditions.
Groups of 8 Swiss mice aged two months receive by subcutaneous injection (SC) or orally (PO) 0.5 mg of antigen constituted by the albumin of bovine serum (BSA) with or without the substance tested in an isotonic saline solution. This large dose of antigen, since it is situated at the limit of the paralysing dose with respect to the immunising response, on account of this fact has a weak response or no response to the antigen alone in the case of the controls; it therefore constitutes a severe criterion for showing the activity of an adjuvant substance. Thirty days later, the mice receive, by the same method of administration, a further dose containing 0.1 mg of the same antigen.
The proportion of antibody is determined by passive hemagglutination by using the red blood corpuscles of sheep treated with formalin and recovered from the antigen studied according to the method described by A. A. Hirata and M. W. Brandiss (J. Immunol., 100, 641-648, 1968). The taking of the blood occurred 14, 28, 34 and 36 days after the first injection.
By way of comparison, mice receive, instead of the product according to the invention, either lipopolysaccharides (LPS) (extract of S.Enteritidis by the water-phenol method), or the adjuvant denoted by the name "WSA" and described by Adam et al. [Infect. Immun. (1973) 7, 855-861]. The control mice only receive the antigen.
The proportions of antibody express the maximum serum dilution which agglutinates a given quantity of red blood corpuscles of sheep.

[7] = test system: retarded hypersensitivity to ovalbumin; test: Retarded hypersensitivity cutaneous test to ovalbumin (esters); type: in vivo, Hartley guinea-pigs; conditions: 100μg in FIA emulsion, challenge day 18, read 48 hours after
Protocol: The tests are effected on batches of 6 Hartley guinea-pigs, females, of 350 g. The administration is made by intradermal injection in the planter pad of each of the hind feet. […] The compound according to the invention is administered at the rate of 0.1 mg contained in the emulsion containing the FIA.
Eighteen days after this immunisation, one looks for possible reactions of retarded hypersensitivity in the antigen on injecting indradermally 0.01 mg or 5 μg of ovalbumin on the side of the animals, and 48 hours after, the reaction at the point of injection is observed. The diameter in mm of the reaction thus caused is measured.

[8] = test system: anti-albumin antibodies; test: Adjuvant character in aqueous phase, 0.5 mg BSA (Ser series); type: in vivo, Swiss mice
Protocol: In the series of tests of which the results are indicated hereafter, the influence of the active principle according to the invention on the strength of the anti-albumin antibodies has been studied under the following conditions.
(§1) Groups of 8 Swiss mice aged two months receive, by subcutaneous injection, 0.5 mg of antigen constituted by the albumin of bovine serum (BSA) and 0.1 mg of the tested substance in an isotonic saline solution. This high dose of antigen, since it is situated at the limit of the paralysing dose with respect to the immunising response, therefore carries with it a weak response or no response to the antigen alone in the tests; it then constitutes a severe criterion for showing the activity of an adjuvant substance. Thirty days later, the mice receive a further dose containing 0.1 mg of the same antigen.
(§2) The strength of the antibody is determined by passive hemagglutination by using the red blood corpuscles of sheep treated with formalin and recovered from the antigen studied by the method described by A. A. Hirata and M. W. Brandiss (J. Immunol., 100, 641-648, 1968). The taking of the blood occurred 14, 28, 34 and 36 days after the first injection.
(§3) By way of comparison, the mice receive, instead of the Mur-NAc-L-Ser-D-iso-Gln, either lipopolysaccharides (LPS) (extract of S. Enteritidis by the water-phenol method), or the adjuvant denoted by the name "WSA" and described by Adam et al. [Infect. Immun. (1973) 7, 855-861]. The control mice only received the antigen.

[9] = test system: anti-albumin antibodies; test: Adjuvant character in aqueous phase, first antigen dose 0.05 mg BSA, PA and ABC (Ser series); type: in vivo, Swiss mice; conditions: 100 μg, first BSA dose 0.05 mg
Protocol: as §1, §2, §3
These tests were carried out again with limitation of the dose of antigen in the first injection to 0.05 mg, the other conditions being the same. This weaker dose of antigen gives by itself a positive response with the controls which have received the antigen without adjuvant. It thus allows to be shown a substance which inhibits the response of immunising the disorder. Moreover, an adjuvant substance, under these conditions, always increases the strength of antibody with respect to that of the controls.
In these tests, the determination of the strength of antibody has been effected simultaneously by passive hemagglutination (PA) and by the method of fixation of the antigen by the serum (ABC), such as described by P. Minden and S. Parr (Handbook of Exp. Immunol., P. 463, D. M. Weir ed. Blackwell Scient. Pub. Oxford and Edinburgh, 1967).

[10] = test system: mice; test: LD50 by intravenous injection on mice, Mur-NAc-L-Ser-D-iso-Gln; type: in vivo; conditions: mice aged two months
Protocol: By progressively increasing the doses administered, that for which the mortality of the mice of a single batch is established at 50% (LD50) is determined.

[11] = 100μg S.C. with BSA 0.5 mg in isotonic saline
[12] = 100μg S.C. with BSA 0.5 mg, further 0.1 mg BSA at 30 days
[13] = I.V. 100 μg, 1 hour after the infection
[14] = I.V. 100 μg, 24 hours before the infection
[15] = iv, listed as Mur-NAc-L-Ala-D-Glu-(OCH3)2
[16] = per os 2000 μg, 24 hours before the infection
[17] = 100μg S.C. with BSA 0.5 mg in isotonic saline, maximum serum dilution agglutinating

Compound	% of protection [3] [%]	Number of animals surviving on day 3 [3]	Number of animals surviving on day 5 [3]	Number of animals surviving on day 8 [3]	Serum antibody Precipitation ([4]; ovalbumin 0.5 mg) [µg/mL]	Serum antibody Agglutination ([4]; ovalbumin 0.5 mg)	% of protection [5, 13] [%]	% of protection [5, 14] [%]	Number of animals surviving on day 3 [5]	Number of animals surviving on day 5 [5]	Number of animals surviving on day 8 [5]	Number of animals surviving on day 3 ([5]; iv)	Number of animals surviving on day 5 ([5]; iv)	Number of animals surviving on day 8 ([5]; iv)	% of protection [5, 16] [%]	Proportion of antibody 28th day ([6]; 100μg S.C. with BSA 0.5 mg)	Proportion of antibody 14th day [6, 17]	Proportion of antibody 34th day [6, 12]	Proportion of antibody 36th day [6, 12]	Cutaneous test (diameter in mm) ([7]; ovalbumin 0.5 mg) [mm]	other results
CNC(=O)C(CCC(=O)O)NC(=O)C(C)NC(=O)C(C)OC1C(O)C(CO)OC(O)C1NC(C)=O [Mur-NAc-L-Ala-D-Glu(NHCH3), 2-(2-acetamido-2-deoxy-3-O-D-glucopyranosyl)-D-propionyl-L-alanyl-D-(α-methylamide)-glutamic acid]																					strength of antibody 14th day [1, 11]: 6; strength of antibody 34th day [1, 12]: 1600; strength of antibody day (fourth column, 36 days) [1, 12]: 1600; Proportion of antibody Agglutination ([2]; PHA): 6100; Proportion of antibody Precipitation ([2]; method of Folin): 5500
COC(=O)CC[C@@H](NC(=O)[C@H](C)NC(=O)[C@@H](C)OC1C(O)C(CO)OC(O)C1NC(C)=O)C(=O)OC (stereo partly drawn) [Mur-NAc-L-Ala-D-Glu(OCH3)2, 2-(2-acetamido-2-deoxy-3-O-D-glucopyranose)-D-propionyl-L-alanyl-D-glutamic dimethyl ester]	52.5	15	12	10	950	2600	88	46	10	9	8	8	8	8	50	50	50	400	800	6.2	Number of animals surviving on day 3 [5, 15]: 21; Number of animals surviving on day 5 [5, 15]: 19; Number of animals surviving on day 8 [5, 15]: 15
COC(=O)[C@@H](CCC(=O)O)NC(=O)[C@H](C)NC(=O)[C@@H](C)OC1C(O)C(CO)OC(O)C1NC(C)=O (stereo partly drawn) [Mur-NAc-L-Ala-D-Glu-α-OCH3, 2-(2-acetamido-2-deoxy-3-O-D-glucopyranose)-D-propionyl-L-alanyl-D-glutamic α-methyl ester]	65	16	16	12			88	67	11	9	6	24 and 16	24 and 16	23 and 14	40.5	12	12	200	400		Serum antibody Precipitation ([4]; ovalbumin 1 mg, nitrogen precipitable per ml serum): 2600 µg/mL; Proportion of antibody 14th day ([6]; 10μg S.C. with BSA 0.5 mg): 6; Proportion of antibody 28th day ([6]; 10μg S.C. with BSA 0.5 mg): 6; Proportion of antibody 34th day ([6]; 10μg S.C. with BSA 0.5 mg): 200; Proportion of antibody 36th day ([6]; 10μg S.C. with BSA 0.5 mg): 400; Proportion of antibody 14th day ([6]; 2000μg P.O. with BSA 0.5 mg): 6; Proportion of antibody 28th day ([6]; 2000μg P.O. with BSA 0.5 mg): 6; Proportion of antibody 34th day ([6]; 2000μg P.O. with BSA 0.5 mg): 50; Proportion of antibody 36th day ([6]; 2000μg P.O. with BSA 0.5 mg): 200; Cutaneous test (diameter in mm) ([7]; ovalbumin 1 mg): 6 ± 3 mm
COC(=O)CC[C@@H](NC(=O)[C@H](C)NC(=O)[C@@H](C)OC1C(O)C(CO)OC(O)C1NC(C)=O)C(N)=O (stereo partly drawn) [Mur-NAc-L-Ala-D-iso-Gln(OCH3), 2-(2-acetamido-2-deoxy-3-O-D-glucopyranose)-D-propionyl-L-alanyl-D-isoglutamine methyl ester]					2100	3000		29				21	3	11		12	12	100	800	12	
CC(=O)NC1C(O)OC(CO)C(O)C1OC(C)C(=O)NC(CO)C(=O)NC(CCC(=O)O)C(N)=O [Mur-NAc-L-Ser-D-iso-Gln, 2-(2-acetamido-2-deoxy-3-O-D-glucopyranosyl)-D-propionyl-L-seryl-D-isoglutamine]																					Strength of antibody 28th day ([8]; 100μg S.C. with BSA 0.5 mg): 25; strength of antibody 14th day [8, 11]: 12; Strength of antibody 36th day [8, 12]: 1600; strength of antibody 34th day [8, 12]: 1600; Strength of antibody 28th day ABC [9]: < 20; Strength of antibody 28th day PA [9]: 3; Strength of antibody 34th day ABC [9]: < 20; Strength of antibody 34th day PA [9]: 50; Strength of antibody 42nd day PA [9]: 260; Strength of antibody 36 day ABC [9]: 230; Strength of antibody 36 day PA [9]: 800; Strength of antibody 14th day ABC ([9]; fixation of the antigen by the serum): < 20; Strength of antibody 14th day PA ([9]; passive hemagglutination): < 3; LD50 [10]: > 1 g per kg
